Test system: HCMV (strain AD169)
Test: Inhibition of HCMV replication, ELISA assay (Hs-68 cells, p28)
Assay type: cell-based, human cytomegalovirus
Details: Human betaherpesvirus 5, AD169, Hs68; Group 1 Table 1; read-out: ELISA CMV EC50
How it was run: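 Hs-68 cells infected with HCMV AD169 at MOI 0.01 PFU/cell (2 h adsorption), washed, then incubated with compound for 8 days at 37° in DMEM/5% FBS. Late protein p28 detected in fixed cells by mAb UL99 ELISA (HRP/OPD, 450 nm). EC50 from % inhibition of replication.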

EC50: 2.1 µM
SMILES: Nc1nc(-c2ccc(NC(=O)CN(CCc3ccccc3)C(=O)c3cccnc3)cc2)cs1 [Example 67]
